{"source": "paper PMC9386255", "about": "“Specialized acyl carrier protein used by serine palmitoyltransferase to synthesize sphingolipids in Rhodobacteria” (Frontiers in Microbiology, 2022)", "assay_type_in_all_cases": "biochemical", "key": {"[1]": {"target": "T1, FadDSm, acyl-CoA synthetase FadD from S. meliloti 1021 (Sinorhizobium meliloti, UniProt Q7APF7)", "T1 construct": "full length, His6-tagged (pET28a, pECH3), E. coli BL21(DE3) pLysS host, IMAC-purified, tag kept", "T1 sequence (Q7APF7 entry or part of it)": "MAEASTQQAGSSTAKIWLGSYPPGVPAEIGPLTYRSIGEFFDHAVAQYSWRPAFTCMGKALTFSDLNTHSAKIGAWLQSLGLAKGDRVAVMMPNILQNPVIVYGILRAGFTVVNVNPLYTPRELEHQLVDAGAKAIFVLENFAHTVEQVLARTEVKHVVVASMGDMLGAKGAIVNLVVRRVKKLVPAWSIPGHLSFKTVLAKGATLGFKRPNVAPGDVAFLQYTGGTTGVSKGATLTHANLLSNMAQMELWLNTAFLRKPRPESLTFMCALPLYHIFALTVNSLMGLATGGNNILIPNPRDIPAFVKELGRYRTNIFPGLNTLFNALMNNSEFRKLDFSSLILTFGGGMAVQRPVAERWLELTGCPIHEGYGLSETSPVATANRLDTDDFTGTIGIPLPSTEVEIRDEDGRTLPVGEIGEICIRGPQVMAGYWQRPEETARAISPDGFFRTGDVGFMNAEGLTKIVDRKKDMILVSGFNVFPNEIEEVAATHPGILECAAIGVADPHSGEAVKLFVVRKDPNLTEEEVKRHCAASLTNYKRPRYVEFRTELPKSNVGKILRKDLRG", "experiment": "[3H]palmitoyl-CoA formation, heptane extraction, scintillation counting", "conditions": "10 mM ATP, 10 mM MgSO4, 1 mM Triton X-100, pH 8.0, 37 C, 40 uM CoA"}, "[2]": {"target": "T2, SPTSw (Swit_3900), serine palmitoyltransferase (Rhizorhabdus wittichii, UniProt A0A9J9HEF8)", "T2 construct": "full length, expressed from pET9a (pJPG02) in E. coli BL21(DE3) pLysS, cell-free extract", "T2 sequence (A0A9J9HEF8 1-400)": "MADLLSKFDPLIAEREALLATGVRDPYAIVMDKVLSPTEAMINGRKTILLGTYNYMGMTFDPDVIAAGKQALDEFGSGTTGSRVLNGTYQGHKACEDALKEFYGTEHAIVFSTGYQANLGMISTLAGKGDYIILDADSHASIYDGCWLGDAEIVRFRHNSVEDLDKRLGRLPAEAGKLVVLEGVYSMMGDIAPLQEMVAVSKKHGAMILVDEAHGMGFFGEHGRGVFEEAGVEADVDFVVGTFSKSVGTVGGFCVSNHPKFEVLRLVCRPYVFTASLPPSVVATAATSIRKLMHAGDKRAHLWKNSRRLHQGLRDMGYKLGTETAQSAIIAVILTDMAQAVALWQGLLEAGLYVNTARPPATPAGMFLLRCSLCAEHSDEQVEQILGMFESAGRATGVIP", "experiment": "L-[…]serine incorporation into 3-oxo-sphinganine, TLC autoradiography, empty-vector control", "conditions": "10 uM palmitoyl-CoA, 432 uM L-[14C]serine, 10 uM pyridoxal phosphate, pH 7.5, 30 C; minor product"}, "[3]": {"target": "T3, SPTEc (ECD_02854), serine palmitoyltransferase (Escherichia coli, UniProt B1LEF2)", "T3 construct": "gene EcSMS35_3263; full length, expressed from pET9a (pJPG01) in E. coli BL21(DE3) pLysS, cell-free extract", "T3 sequence (B1LEF2 1-390)": "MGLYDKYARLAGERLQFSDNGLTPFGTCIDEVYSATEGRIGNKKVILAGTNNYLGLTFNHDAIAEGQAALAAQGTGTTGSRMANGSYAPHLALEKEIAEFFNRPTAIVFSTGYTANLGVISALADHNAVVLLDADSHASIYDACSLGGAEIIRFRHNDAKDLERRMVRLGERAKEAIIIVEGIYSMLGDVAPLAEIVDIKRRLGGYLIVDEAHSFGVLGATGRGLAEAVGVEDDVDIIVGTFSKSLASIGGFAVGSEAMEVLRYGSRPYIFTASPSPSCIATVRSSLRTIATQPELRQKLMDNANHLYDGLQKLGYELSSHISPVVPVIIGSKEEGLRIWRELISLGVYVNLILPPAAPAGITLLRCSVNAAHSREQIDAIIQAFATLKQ", "experiment": "L-[…]serine incorporation into 3-oxo-sphinganine, TLC autoradiography, empty-vector control", "conditions": "10 uM palmitoyl-CoA, 432 uM L-[14C]serine, 10 uM pyridoxal phosphate, pH 7.5, 30 C; minor product"}, "[4]": {"target": "T4, SPTCc (CC_1162), serine palmitoyltransferase (Caulobacter vibrioides, UniProt Q9A932)", "T4 construct": "full length, expressed from pET9a (pJPG08) in E. coli BL21(DE3) pLysS, cell-free extract", "T4 sequence (Q9A932 1-404)": "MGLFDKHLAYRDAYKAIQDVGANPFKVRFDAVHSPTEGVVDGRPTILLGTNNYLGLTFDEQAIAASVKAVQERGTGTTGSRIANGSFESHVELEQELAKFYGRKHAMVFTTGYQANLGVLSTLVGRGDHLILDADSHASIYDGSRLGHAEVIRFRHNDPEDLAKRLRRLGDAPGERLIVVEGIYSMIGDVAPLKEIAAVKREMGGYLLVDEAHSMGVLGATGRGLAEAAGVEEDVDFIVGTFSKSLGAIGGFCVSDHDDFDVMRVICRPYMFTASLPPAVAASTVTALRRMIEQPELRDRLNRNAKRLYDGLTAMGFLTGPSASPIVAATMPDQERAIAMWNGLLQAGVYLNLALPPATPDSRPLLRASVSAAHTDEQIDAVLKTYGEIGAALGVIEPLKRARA", "experiment": "L-[…]serine incorporation into 3-oxo-sphinganine, TLC autoradiography, empty-vector control", "conditions": "10 uM palmitoyl-CoA, 432 uM L-[14C]serine, 10 uM pyridoxal phosphate, pH 7.5, 30 C; minor product"}}}
{"smiles": "CC(C)(COP(=O)(O)OP(=O)(O)OC[C@H]1O[C@@H](n2cnc3c(N)ncnc32)[C@H](O)[C@@H]1OP(=O)(O)O)[C@@H](O)C(=O)NCCC(=O)NCCS", "note": "[CoA]", "values": [{"measurement": "[3H]palmitoyl-CoA formation, heptane extraction, scintillation counting", "setting": "[1]; 200 uM [3H]palmitate", "value": "acyl-CoA synthetase FadD is able to form acyl-CoA"}]}
{"smiles": "CCCCCCCCCCCCCCCC(=O)O", "note": "[palmitate]", "values": [{"measurement": "[3H]palmitoyl-CoA formation, heptane extraction, scintillation counting", "setting": "[1]; 200 uM palmitate, labelled compound", "value": "Using FadDSm in the acylation assay resulted in an increase in the amount of acyl-CoA"}]}
{"smiles": "CCCCCCCCCCCCCCCC(=O)SCCNC(=O)CCNC(=O)[C@H](O)C(C)(C)COP(=O)(O)OP(=O)(O)OC[C@H]1O[C@@H](n2cnc3c(N)ncnc32)[C@H](O)[C@@H]1OP(=O)(O)O", "note": "[palmitoyl-CoA]", "values": [{"measurement": "L-[14C]serine incorporation into 3-oxo-sphinganine, TLC autoradiography, empty-v", "setting": "[2]", "value": "using the SPTs from C. crescentus, E. coli BL21(DE3) or S. wittichii, and palmitoyl-CoA as thioester"}, {"measurement": "L-[14C]serine incorporation into 3-oxo-sphinganine, TLC autoradiography, empty-v", "setting": "[3]", "value": "using the SPTs from C. crescentus, E. coli BL21(DE3) or S. wittichii, and palmitoyl-CoA as thioester"}, {"measurement": "L-[14C]serine incorporation into 3-oxo-sphinganine, TLC autoradiography, empty-v", "setting": "[4]", "value": "using the SPTs from C. crescentus, E. coli BL21(DE3) or S. wittichii, and palmitoyl-CoA as thioester"}]}
